Source: US10351561B2, “Pyrazolo[3,4-b]pyridines and imidazo[1,5-b]pyridazines as PDE1 inhibitors” (H. Lundbeck A/S, priority 2016, dated 2019)

How the values were obtained:
Type in all cases: biochemical
[1] = target: PDE1A (Homo sapiens, UniProt P54750); experiment: PDE1 inhibition assay (PDE1A), SPA with tritium labelled cAMP; details: 15 nM tritium labelled cAMP, 1 hr at room temperature, SPA beads
Method: (§1) PDE1A, PDE1B and PDE1C assays were performed as follows: the assays were performed in 60 μL samples containing a fixed amount of the PDE1 enzyme (sufficient to convert 20-25% of the cyclic nucleotide substrate), a buffer (50 mM HEPES (4-(2-hydroxyethyl)-1-piperazineethanesulfonic acid) pH 7.6; 10 mM MgCl2; 0.02% Tween20), 0.1 mg/ml BSA (bovine serum albumin), 15 nM tritium labelled cAMP and varying amounts of inhibitors. Reactions were initiated by addition of the cyclic nucleotide substrate, and reactions were allowed to proceed for 1 hr at room temperature before being terminated through mixing with 20 μL (0.2 mg) yttrium silicate SPA beads (PerkinElmer). The beads were allowed to settle for 1 hr in the dark before the plates were counted in a Wallac 1450 Microbeta counter. The measured signals were converted to activity relative to an uninhibited control (100%) and IC50 values were calculated using XIFit (model 205, IDBS).

[2] = target: PDE1B (Homo sapiens, UniProt Q01064); experiment: PDE1 inhibition assay (PDE1B), SPA with tritium labelled cAMP; details: 15 nM tritium labelled cAMP, 1 hr at room temperature, SPA beads; read-out: PDE1B, IC50
Method: Reactions were initiated by addition of the cyclic nucleotide substrate, and reactions were allowed to proceed for 1 hr at room temperature before being terminated through mixing with 20 μL (0.2 mg) yttrium silicate SPA beads (PerkinElmer).

[3] = target: PDE1C (Homo sapiens, UniProt Q14123); experiment: PDE1 inhibition assay (PDE1C), SPA with tritium labelled cAMP; details: 15 nM tritium labelled cAMP, 1 hr at room temperature, SPA beads
Method: as §1

PDE1A, sequence (P54750 whole entry): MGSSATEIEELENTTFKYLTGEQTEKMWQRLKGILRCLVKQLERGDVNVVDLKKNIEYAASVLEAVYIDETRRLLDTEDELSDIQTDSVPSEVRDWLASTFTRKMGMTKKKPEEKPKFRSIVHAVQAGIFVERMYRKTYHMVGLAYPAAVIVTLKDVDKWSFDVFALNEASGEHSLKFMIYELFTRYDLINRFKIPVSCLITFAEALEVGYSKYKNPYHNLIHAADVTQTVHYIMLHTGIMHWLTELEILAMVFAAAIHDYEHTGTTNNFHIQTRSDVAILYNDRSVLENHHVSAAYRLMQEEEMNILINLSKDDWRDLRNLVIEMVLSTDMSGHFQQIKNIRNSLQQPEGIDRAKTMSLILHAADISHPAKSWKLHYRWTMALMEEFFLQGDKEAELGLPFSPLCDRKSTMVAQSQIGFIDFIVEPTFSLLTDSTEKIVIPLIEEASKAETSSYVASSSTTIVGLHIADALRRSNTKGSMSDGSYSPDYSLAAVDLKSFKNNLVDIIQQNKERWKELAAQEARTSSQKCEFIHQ
PDE1B, sequence (Q01064 whole entry): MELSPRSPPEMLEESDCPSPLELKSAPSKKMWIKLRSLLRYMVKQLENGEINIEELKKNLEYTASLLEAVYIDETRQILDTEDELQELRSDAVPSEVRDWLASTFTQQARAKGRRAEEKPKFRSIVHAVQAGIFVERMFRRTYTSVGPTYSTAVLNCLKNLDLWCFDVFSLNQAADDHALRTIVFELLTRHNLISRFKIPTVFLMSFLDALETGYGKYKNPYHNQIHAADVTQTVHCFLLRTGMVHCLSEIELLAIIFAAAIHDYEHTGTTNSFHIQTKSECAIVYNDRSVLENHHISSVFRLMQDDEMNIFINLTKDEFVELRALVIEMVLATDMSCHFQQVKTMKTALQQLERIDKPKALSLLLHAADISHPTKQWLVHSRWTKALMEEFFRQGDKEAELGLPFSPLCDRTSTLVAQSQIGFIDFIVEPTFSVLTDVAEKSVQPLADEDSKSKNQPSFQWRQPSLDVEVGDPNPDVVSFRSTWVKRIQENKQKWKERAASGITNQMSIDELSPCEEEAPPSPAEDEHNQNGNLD
PDE1C, sequence (Q14123 whole entry): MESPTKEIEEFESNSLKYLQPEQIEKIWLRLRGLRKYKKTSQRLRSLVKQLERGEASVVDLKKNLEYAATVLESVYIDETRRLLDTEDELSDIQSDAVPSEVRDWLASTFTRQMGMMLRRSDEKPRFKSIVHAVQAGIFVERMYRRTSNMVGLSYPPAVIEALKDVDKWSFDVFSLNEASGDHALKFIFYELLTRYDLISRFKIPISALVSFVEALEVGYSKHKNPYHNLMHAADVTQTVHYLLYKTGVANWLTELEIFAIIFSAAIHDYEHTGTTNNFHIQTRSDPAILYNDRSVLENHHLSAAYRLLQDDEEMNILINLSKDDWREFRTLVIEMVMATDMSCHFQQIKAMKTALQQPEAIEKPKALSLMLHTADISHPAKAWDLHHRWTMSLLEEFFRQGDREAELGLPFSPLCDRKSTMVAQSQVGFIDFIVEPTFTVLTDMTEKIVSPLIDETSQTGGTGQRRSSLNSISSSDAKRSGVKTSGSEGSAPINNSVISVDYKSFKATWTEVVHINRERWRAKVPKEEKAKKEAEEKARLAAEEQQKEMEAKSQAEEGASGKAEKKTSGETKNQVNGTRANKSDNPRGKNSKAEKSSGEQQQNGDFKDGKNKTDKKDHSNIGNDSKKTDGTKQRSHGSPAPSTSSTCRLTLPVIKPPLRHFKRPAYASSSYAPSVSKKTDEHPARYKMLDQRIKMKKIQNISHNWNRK

| Compound | IC50 [1] | IC50 [2] | IC50 [3] |
| --- | --- | --- | --- |
| CCOc1ncccc1-c1cc(NCc2cnn(C)c2)c2c(C(C)CC)nc(C)n2n1 (single isomer, unassigned; (+)) [Example 48, (+)-2-(2-ethoxy-3-pyridyl)-7-methyl-N-[(1-methylpyrazol-4-yl)methyl]-5-[1-methylpropyl]imidazo[1,5-b]pyridazin-4-amine] | 5.8 nM | 0.64 nM | 4.9 nM |
| CCOc1ncccc1-c1cc(NCc2ncn(C)n2)c2c(C(C)CC)nc(C)n2n1 (single isomer, unassigned; (+)) [Example 50, (+)-2-(2-ethoxy-3-pyridyl)-7-methyl-N-[(1-methyl-1,2,4-triazol-3-yl)methyl]-5-[1-methylpropyl]imidazo[1,5-b]pyridazin-4-amine] | 5.6 nM | 0.53 nM | 2.4 nM |
| CCOc1ncccc1-c1cc(NCc2cc[nH]n2)c2c(C(C)CC)nc(C)n2n1 (single isomer, unassigned; (+)) [Example 51, (+)-2-(2-ethoxy-3-pyridyl)-7-methyl-N-(1H-pyrazol-3-ylmethyl)-5-[1-methylpropyl]imidazo[1,5-b]pyridazin-4-amine] | 57 nM | 4.3 nM | 31 nM |
| CCOc1ncccc1-c1cc(NCc2ccnc(OC)c2)c2c(C(C)CC)nc(C)n2n1 (single isomer, unassigned; (+)) [Example 53, (+)-2-(2-ethoxy-3-pyridyl)-N-[(2-methoxy-4-pyridyl)methyl]-7-methyl-5-[1-methylpropyl]imidazo[1,5-b]pyridazin-4-amine] | 62 nM | 12 nM | 11 nM |
| CCOc1ncccc1-c1cc(NCc2cnn(C)c2)c2c(C(C)CC)nc(C)n2n1 (single isomer, unassigned; (-)) [Example 47, (−)-2-(2-ethoxy-3-pyridyl)-7-methyl-N-[(1-methylpyrazol-4-yl)methyl]-5-[1-methylpropyl]imidazo[1,5-b]pyridazin-4-amine] | 44 nM | 7.5 nM | 32 nM |
| CCOc1ncccc1-c1cc(NCc2ncn(C)n2)c2c(C(C)CC)nc(C)n2n1 (single isomer, unassigned; (-)) [Example 49, (−)-2-(2-ethoxy-3-pyridyl)-7-methyl-N-[(1-methyl-1,2,4-triazol-3-yl)methyl]-5-[1-methylpropyl]imidazo[1,5-b]pyridazin-4-amine] | 14 nM | 1.4 nM | 7.6 nM |
| CCOc1ncccc1-c1cc(NCc2cc[nH]n2)c2c(C(C)CC)nc(C)n2n1 (single isomer, unassigned; (-)) [Example 52, (−)-2-(2-ethoxy-3-pyridyl)-7-methyl-N-(1H-pyrazol-3-ylmethyl)-5-[1-methylpropyl]imidazo[1,5-b]pyridazin-4-amine] | 12 nM | 0.65 nM | 6.1 nM |
| CCOc1ncccc1-c1cc(NCc2ccnc(OC)c2)c2c(C(C)CC)nc(C)n2n1 (single isomer, unassigned; (-)) [Example 54, (−)-2-(2-ethoxy-3-pyridyl)-N-[(2-methoxy-4-pyridyl)methyl]-7-methyl-5-[1-methylpropyl]imidazo[1,5-b]pyridazin-4-amine] | 9.6 nM | 1.8 nM | 4.4 nM |
| CCOc1ncccc1-c1cc(NCc2coc(C)n2)c2c(C(C)C)nn(C)c2n1 [Example 2, 6-(2-ethoxy-3-pyridyl)-3-isopropyl-1-methyl-N-[(2-methyloxazol-4-yl)methyl]pyrazolo[3,4-b]pyridin-4-amine] | 81 nM | 15 nM | 99 nM |
| CCOc1ncccc1-c1cc(NCc2cc[nH]n2)c2c(C(C)C)nn(C)c2n1 [Example 3, 6-(2-ethoxy-3-pyridyl)-3-isopropyl-1-methyl-N-(1H-pyrazol-3-ylmethyl)pyrazolo[3,4-b]pyridin-4-amine] | 56 nM | 4.3 nM | 58 nM |
| CCOc1ncccc1-c1cc(NCc2ncn(C)n2)c2c(C(C)C)nn(C)c2n1 [Example 4, 6-(2-ethoxy-3-pyridyl)-3-isopropyl-1-methyl-N-[(1-methyl-1,2,4-triazol-3-yl)methyl]pyrazolo[3,4-b]pyridin-4-amine] | 11 nM | 0.34 nM | 13 nM |
| CCOc1ncccc1-c1cc(NCc2noc(C)n2)c2c(C(C)C)nn(C)c2n1 [Example 5, 6-(2-ethoxy-3-pyridyl)-3-isopropyl-1-methyl-N-[(5-methyl-1,2,4-oxadiazol-3-yl)methyl]pyrazolo[3,4-b]pyridin-4-amine] | 8.9 nM | 1.1 nM | 19 nM |
| CCOc1ncccc1-c1cc(NCc2cc(C)[nH]n2)c2c(C(C)C)nn(C)c2n1 [Example 6, 6-(2-ethoxy-3-pyridyl)-3-isopropyl-1-methyl-N-[(5-methyl-1H-pyrazol-3-yl)methyl]pyrazolo[3,4-b]pyridin-4-amine] | 14 nM | 1.2 nM | 20 nM |
| CCOc1ncccc1-c1cc(NCc2ccnc(OC)c2)c2c(C(C)C)nn(C)c2n1 [Example 7, 6-(2-ethoxy-3-pyridyl)-3-isopropyl-N-[(2-methoxy-4-pyridyl)methyl]-1-methyl-pyrazolo[3,4-b]pyridin-4-amine] | 14 nM | 2.6 nM | 18 nM |
| CCOc1ncccc1-c1cc(NCc2cn(C)cn2)c2c(C(C)C)nc(C)n2n1 [Example 8, 2-(2-ethoxy-3-pyridyl)-5-isopropyl-7-methyl-N-[(1-methylimidazol-4-yl)methyl]imidazo[1,5-b]pyridazin-4-amine] | 2.4 nM | 0.22 nM | 2.6 nM |
| CCOc1ncccc1-c1cc(NCc2coc(C)n2)c2c(C(C)C)nc(C)n2n1 [Example 9, 2-(2-ethoxy-3-pyridyl)-5-isopropyl-7-methyl-N-[(2-methyloxazol-4-yl)methyl]imidazo[1,5-b]pyridazin-4-amine] | 30 nM | 4.3 nM | 29 nM |
| CCOc1ncccc1-c1cc(NCc2cc[nH]n2)c2c(C(C)C)nc(C)n2n1 [Example 10, 2-(2-ethoxy-3-pyridyl)-5-isopropyl-7-methyl-N-(1H-pyrazol-3-ylmethyl)imidazo[1,5-b]pyridazin-4-amine] | 15 nM | 1.6 nM | 13 nM |
| CCOc1ncccc1-c1cc(NCc2ncn(C)n2)c2c(C(C)C)nc(C)n2n1 [Example 11, 2-(2-ethoxy-3-pyridyl)-5-isopropyl-7-methyl-N-[(1-methyl-1,2,4-triazol-3-yl)methyl]imidazo[1,5-b]pyridazin-4-amine] | 2 nM | 0.28 nM | 2.6 nM |
| CCOc1ncccc1-c1cc(NCc2noc(C)n2)c2c(C(C)C)nc(C)n2n1 [Example 12, 2-(2-ethoxy-3-pyridyl)-5-isopropyl-7-methyl-N-[(5-methyl-1,2,4-oxadiazol-3-yl)methyl]imidazo[1,5-b]pyridazin-4-amine] | 3.6 nM | 0.35 nM | 4 nM |
| CCOc1ncccc1-c1cc(NCc2cc(C)[nH]n2)c2c(C(C)C)nc(C)n2n1 [Example 13, 2-(2-ethoxy-3-pyridyl)-5-isopropyl-7-methyl-N-[(5-methyl-1H-pyrazol-3-yl)methyl]imidazo[1,5-b]pyridazin-4-amine] | 4.1 nM | 0.31 nM | 2.7 nM |
| CCOc1ncccc1-c1cc(NCc2cncc(OC)c2)c2c(C(C)C)nc(C)n2n1 [Example 14, 2-(2-ethoxy-3-pyridyl)-5-isopropyl-N-[(5-methoxy-3-pyridyl)methyl]-7-methyl-imidazo[1,5-b]pyridazin-4-amine] | 6.2 nM | 1.5 nM | 5.1 nM |
| CCOc1ncccc1-c1cc(NCc2ccnc(OC)c2)c2c(C(C)C)nc(C)n2n1 [Example 15, 2-(2-ethoxy-3-pyridyl)-5-isopropyl-N-[(2-methoxy-4-pyridyl)methyl]-7-methyl-imidazo[1,5-b]pyridazin-4-amine] | 7.3 nM | 1.7 nM | 9 nM |
| CCOc1ncccc1-c1cc(NCc2cnc(C)o2)c2c(C(C)C)nc(C)n2n1 [Example 16, 2-(2-ethoxy-3-pyridyl)-5-isopropyl-7-methyl-N-[(2-methyloxazol-5-yl)methyl]imidazo[1,5-b]pyridazin-4-amine] | 19 nM | 2.8 nM | 16 nM |
| CCOc1ncccc1-c1cc(NCc2cnc(C)s2)c2c(C(C)C)nc(C)n2n1 [Example 17, 2-(2-ethoxy-3-pyridyl)-5-isopropyl-7-methyl-N-[(2-methylthiazol-5-yl)methyl]imidazo[1,5-b]pyridazin-4-amine] | 6.1 nM | 1.5 nM | 5.7 nM |
| CCOc1ncccc1-c1cc(NCc2cn[nH]c2)c2c(C(C)C)nc(C)n2n1 [Example 18, 2-(2-ethoxy-3-pyridyl)-5-isopropyl-7-methyl-N-(1H-pyrazol-4-ylmethyl)imidazo[1,5-b]pyridazin-4-amine] | 33 nM | 5.7 nM | 16 nM |
| CCOc1ncccc1-c1cc(NCc2cnn(C)c2)c2c(C(C)C)nn(C)c2n1 [Example 19, 6-(2-ethoxy-3-pyridyl)-3-isopropyl-1-methyl-N-[(1-methylpyrazol-4-yl)methyl]pyrazolo[3,4-b]pyridin-4-amine] | 44 nM | 5.8 nM | 56 nM |
